Source: patent US12570642B2, “GLP-IR modulating compounds” (Gilead Sciences, Inc., priority 2021, dated 2026)

Target: GLP-1R (Homo sapiens, UniProt P43220)
Assay: GLP-1R Activation - cAMP Assay
Format: cell-based
Settings: […]; each compound run on one of the two cAMP assays (Assay 1 or Assay 2, not specified)
In short: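 cAMP rise read by HTRF after 30 min agonist exposure (10-point titration, 37 °C) in HBSS/20 mM Hepes/0.1% BSA, following 1 h pre-incubation. Cells: stable GLP-1R CHO line, 1,000/well, seeded overnight. Sigmoidal fit of response vs log concentration gives EC50.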

GLP-1R, sequence (P43220 24-463): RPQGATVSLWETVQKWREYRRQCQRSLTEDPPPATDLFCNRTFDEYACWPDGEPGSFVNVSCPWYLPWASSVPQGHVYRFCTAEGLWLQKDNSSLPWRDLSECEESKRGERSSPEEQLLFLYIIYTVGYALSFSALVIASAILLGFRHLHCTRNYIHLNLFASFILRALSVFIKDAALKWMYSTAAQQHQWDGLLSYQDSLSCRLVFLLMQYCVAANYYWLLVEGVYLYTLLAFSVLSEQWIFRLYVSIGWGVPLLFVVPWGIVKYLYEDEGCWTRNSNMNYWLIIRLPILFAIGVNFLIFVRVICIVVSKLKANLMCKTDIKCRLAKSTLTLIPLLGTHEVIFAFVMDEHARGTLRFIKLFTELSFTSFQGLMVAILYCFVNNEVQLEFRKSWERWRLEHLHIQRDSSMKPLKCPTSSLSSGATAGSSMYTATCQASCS

Compound	EC50 [nM]
COC(=O)N1C[C@H](OC)[C@H](n2c(Cc3cc(F)c(-c4cccc(OCc5ccc(C#N)cc5F)n4)cc3F)nc3ccc(C(=O)O)cc32)C1 [Example 85]	1440
COC(=O)N1C[C@@H](n2c(Cc3cc(F)c(-c4cccc(OCc5ccc(C#N)cc5F)n4)cc3F)nc3ccc(C(=O)O)cc32)[C@H](OC)C1 [Example 86, 2-(4-(6-((4-cyano-2-fluorobenzyl)oxy)pyridin-2-yl)-2,5-difluorobenzyl)-1-((3R,4R)-4-methoxy-1-(methoxycarbonyl)pyrrolidin-3-yl)-1H-benzo[d]imidazole-6-carboxylic Acid]	140
COC(=O)N1C[C@@H](OC)[C@@H](n2c(Cc3cc(F)c(-c4cccc(OCc5ccc(C#N)cc5F)n4)cc3F)nc3ccc(C(=O)O)cc32)C1 [Example 87, 2-(4-(6-((4-cyano-2-fluorobenzyl)oxy)pyridin-2-yl)-2,5-difluorobenzyl)-1-((3S,4R)-4-methoxy-1-(methoxycarbonyl)pyrrolidin-3-yl)-1H-benzo[d]imidazole-6-carboxylic Acid]	22.5
CO[C@@H]1CN(S(C)(=O)=O)C[C@H]1n1c(Cc2cc(F)c(-c3cccc(OCc4ccc(C#N)cc4F)n3)cc2F)nc2ccc(C(=O)O)cc21 [Example 88]	136
CO[C@@H]1CN(S(C)(=O)=O)C[C@@H]1n1c(Cc2cc(F)c(-c3cccc(OCc4ccc(C#N)cc4F)n3)cc2F)nc2ccc(C(=O)O)cc21 [Example 89, 2-(4-(6-((4-cyano-2-fluorobenzyl)oxy)pyridin-2-yl)-2,5-difluorobenzyl)-1-((3S,4R)-4-methoxy-1-(methylsulfonyl)pyrrolidin-3-yl)-1H-benzo[d]imidazole-6-carboxylic Acid]	15.3

Same assay, conditions: cAMP increase in CHO cells stably expressing GLP-1R; each compound run on one of the two cAMP assays (Assay 1 or Assay 2, not specified)

Compound	EC50 [nM]
N#Cc1ccc(COc2cccc(-c3cc(F)c(Cc4nc5ccc(C(=O)O)cc5n4C4CCS(=O)(=O)C4)cc3F)n2)c(F)c1 (centres unmarked) [Example 81, 2-(4-(6-((4-cyano-2-fluorobenzyl)oxy)pyridin-2-yl)-2,5-difluorobenzyl)-1-(1,1-dioxidotetrahydrothiophen-3-yl)-1H-benzo[d]imidazole-6-carboxylic Acid]	40.9
N#Cc1ccc(COc2cccc(-c3cc(F)c(Cc4nc5ccc(C(=O)O)cc5n4C4CCOCC45CC5)cc3F)n2)c(F)c1 (centres unmarked) [Example 82, 2-(4-(6-((4-cyano-2-fluorobenzyl)oxy)pyridin-2-yl)-2,5-difluorobenzyl)-1-(5-oxaspiro[2.5]octan-8-yl)-1H-benzo[d]imidazole-6-carboxylic Acid]	1.6
CC1(C)COCCC1n1c(Cc2cc(F)c(-c3cccc(OCc4ccc(C#N)cc4F)n3)cc2F)nc2ccc(C(=O)O)cc21 (centres unmarked) [Example 83, 2-(4-(6-((4-cyano-2-fluorobenzyl)oxy)pyridin-2-yl)-2,5-difluorobenzyl)-1-(3,3-dimethyltetrahydro-2H-pyran-4-yl)-1H-benzo[d]imidazole-6-carboxylic Acid]	0.62
COCCn1c(Cc2cc(F)c(-c3cccc(OCc4ccc(C#N)cc4F)n3)cc2F)nc2c(-c3ccccn3)cc(C(=O)O)cc21 [Example 84]	1.34
Cn1cc(-c2cc(F)c(COc3cccc(-c4cc(F)c(Cc5nc6ccc(C(=O)O)cc6n5C5COCC5(C)C)cc4F)n3)cn2)cn1 (centres unmarked) [Example 90]	0.7
COc1cc(-c2cnn(C)c2)ncc1COc1cccc(-c2cc(F)c(Cc3nc4ccc(C(=O)O)cc4n3C[C@@H](C)OC)cc2F)n1 [Example 91, (R)-2-(2,5-difluoro-4-(6-((4-methoxy-6-(1-methyl-1H-pyrazol-4-yl)pyridin-3-yl)methoxy)pyridin-2-yl)benzyl)-1-(2-methoxypropyl)-1H-benzo[d]imidazole-6-carboxylic Acid]	2.06
CC1(C)COCC1n1c(Cc2cc(F)c(-c3cccc(OCc4ccc(Cl)nc4)n3)cc2F)nc2ccc(C(=O)O)cc21 (centres unmarked) [Example 92]	0.13
CC1(C)COCC1n1c(Cc2cc(F)c(-c3cccc(OCc4cnc(Cl)cn4)n3)cc2F)nc2ccc(C(=O)O)cc21 (centres unmarked) [Example 93, 2-(4-(6-((5-chloropyrazin-2-yl)methoxy)pyridin-2-yl)-2,5-difluorobenzyl)-1-(4,4-dimethyltetrahydrofuran-3-yl)-1H-benzo[d]imidazole-6-carboxylic Acid]	0.35
COCCn1c(Cc2cc(F)c(-c3cccc(OCc4cnc(C(F)F)cn4)n3)cc2F)nc2ccc(C(=O)O)cc21 [Example 94]	23.9
COCCn1c(Cc2cc(F)c(-c3cccc(OCc4ccc(-n5ccnc5)nc4)n3)cc2F)nc2ccc(C(=O)O)cc21 [Example 95, 2-(4-(6-((6-(1H-imidazol-1-yl)pyridin-3-yl)methoxy)pyridin-2-yl)-2,5-difluorobenzyl)-1-(2-methoxyethyl)-1H-benzo[d]imidazole-6-carboxylic Acid]	0.97
COCCn1c(Cc2cc(F)c(-c3cccc(OCc4ccc(C(C)(F)F)cc4)n3)cc2F)nc2ccc(C(=O)O)cc21 [Example 96, 2-(4-(6-((4-(1,1-difluoroethyl)benzyl)oxy)pyridin-2-yl)-2,5-difluorobenzyl)-1-(2-methoxyethyl)-1H-benzo[d]imidazole-6-carboxylic Acid]	0.98
COCCn1c(Cc2ccc(-c3cccc(OCc4ccc(C#N)cc4F)n3)c3c2COC3)nc2ccc(C(=O)O)cc21 [Example 97]	21.2
COCCOCCOCCn1cc(-c2ccc(COc3cccc(-c4cc(F)c(Cc5nc6ccc(C(=O)O)cc6n5CCOC)cc4F)n3)c(F)c2)cn1 [Example 98]	1.43
COCCn1c(Cc2cc(F)c(-c3cccc(OCc4ccc(-c5cn(C)nn5)cc4F)n3)cc2F)nc2ccc(C(=O)O)cc21 [Example 99, 2-(2,5-difluoro-4-(6-((2-fluoro-4-(1-methyl-1H-1,2,3-triazol-4-yl)benzyl)oxy)pyridin-2-yl)benzyl)-1-(2-methoxyethyl)-1H-benzo[d]imidazole-6-carboxylic Acid]	0.6
COCCn1c(Cc2cc(F)c(-c3cccc(OCc4ccc(-c5cnn(C(F)F)c5)cc4F)n3)cc2F)nc2ccc(C(=O)O)cc21 [Example 100, 2-(4-(6-((4-(1-(difluoromethyl)-1H-pyrazol-4-yl)-2-fluorobenzyl)oxy)pyridin-2-yl)-2,5-difluorobenzyl)-1-(2-methoxyethyl)-1H-benzo[d]imidazole-6-carboxylic Acid]	0.45
COCCn1c(Cc2cc(F)c(-c3cccc(OCc4ccc(-c5ccnn5C)cc4F)n3)cc2F)nc2ccc(C(=O)O)cc21 [Example 101, 2-(2,5-difluoro-4-(6-((2-fluoro-4-(1-methyl-1H-pyrazol-5-yl)benzyl)oxy)pyridin-2-yl)benzyl)-1-(2-methoxyethyl)-1H-benzo[d]imidazole-6-carboxylic Acid]	1.46
COCCn1c(Cc2cc(F)c(-c3cccc(OCc4ccc(-c5cc(C(F)(F)F)nn5C)cc4F)n3)cc2F)nc2ccc(C(=O)O)cc21 [Example 102, 2-(2,5-difluoro-4-(6-((2-fluoro-4-(1-methyl-3-(trifluoromethyl)-1H-pyrazol-5-yl)benzyl)oxy)pyridin-2-yl)benzyl)-1-(2-methoxyethyl)-1H-benzo[d]imidazole-6-carboxylic Acid]	22.8
COCCn1c(Cc2cc(F)c(-c3cccc(OCc4ccc(-c5cccnc5)cc4F)n3)cc2F)nc2ccc(C(=O)O)cc21 [Example 103, 2-(2,5-difluoro-4-(6-((2-fluoro-4-(pyridin-3-yl)benzyl)oxy)pyridin-2-yl)benzyl)-1-(2-methoxyethyl)-1H-benzo[d]imidazole-6-carboxylic Acid]	1.23
COCCn1c(Cc2cc(F)c(-c3cccc(OCc4ccc(-c5cccnc5C)cc4F)n3)cc2F)nc2ccc(C(=O)O)cc21 [Example 104, 2-(2,5-difluoro-4-(6-((2-fluoro-4-(2-methylpyridin-3-yl)benzyl)oxy)pyridin-2-yl)benzyl)-1-(2-methoxyethyl)-1H-benzo[d]imidazole-6-carboxylic Acid]	41.3
COCCn1c(Cc2cc(F)c(-c3cccc(OCc4ccc(-c5ccc(C)nc5)cc4F)n3)cc2F)nc2ccc(C(=O)O)cc21 [Example 105, 2-(2,5-difluoro-4-(6-((2-fluoro-4-(6-methylpyridin-3-yl)benzyl)oxy)pyridin-2-yl)benzyl)-1-(2-methoxyethyl)-1H-benzo[d]imidazole-6-carboxylic Acid]	1.55
COCCn1cc(-c2ccc(COc3cccc(-c4cc(F)c(Cc5nc6ccc(C(=O)O)cc6n5CCOC)cc4F)n3)c(F)c2)cn1 [Example 106, 2-(2,5-difluoro-4-(6-((2-fluoro-4-(1-(2-methoxyethyl)-1H-pyrazol-4-yl)benzyl)oxy)pyridin-2-yl)benzyl)-1-(2-methoxyethyl)-1H-benzo[d]imidazole-6-carboxylic Acid]	2.22
COCCn1c(Cc2cc(F)c(-c3cccc(OCc4ccc(-c5cn(C)nn5)nc4)n3)cc2F)nc2ccc(C(=O)O)cc21 [Example 107, 2-(2,5-difluoro-4-(6-((6-(1-methyl-1H-1,2,3-triazol-4-yl)pyridin-3-yl)methoxy)pyridin-2-yl)benzyl)-1-(2-methoxyethyl)-1H-benzo[d]imidazole-6-carboxylic Acid]	1.4
COCCn1c(Cc2cc(F)c(-c3cccc(OCc4ccc(-c5cnn(C)c5)nc4)n3)cc2F)nc2ccc(C(=O)O)cc21 [Example 108, 2-(2,5-difluoro-4-(6-((6-(1-methyl-1H-pyrazol-4-yl)pyridin-3-yl)methoxy)pyridin-2-yl)benzyl)-1-(2-methoxyethyl)-1H-benzo[d]imidazole-6-carboxylic Acid]	3.28
COCCn1c(Cc2cc(F)c(-c3cccc(OCc4ccc(-c5cnn(C(F)F)c5)nc4)n3)cc2F)nc2ccc(C(=O)O)cc21 [Example 109, 2-(4-(6-((6-(1-(difluoromethyl)-1H-pyrazol-4-yl)pyridin-3-yl)methoxy)pyridin-2-yl)-2,5-difluorobenzyl)-1-(2-methoxyethyl)-1H-benzo[d]imidazole-6-carboxylic Acid]	2.51
